{
  "source": "patent US11419814B2",
  "about": "“Transdermal compositions of ibuprofen and methods of use thereof” (Aponia Laboratories, Inc., priority 2011, dated 2022)",
  "tested_on": "EpiSkin (reconstructed human epidermis)",
  "experiment": "In vitro dermal irritation EpiSkin test (MTT viability)",
  "method": "The SkinEthic EpiSkin® test system has been validated by OECD test method (439) as an in vitro model to assess skin irritation potential. The test uses human keratinocytes derived from healthy donors, grown in vitro to reconstruct a functional model of the human epidermis.\nEpiSkin® units were shipped on transport agar in sterile plates of 12 individual units. Upon delivery, the condition of the EpiSkin® was assessed by checking the pH and temperature indicators. EpiSkin® units were transferred to 12 well plates containing EpiSkin® maintenance medium (2 mL). […] The negative control was Dulbecco's phosphate buffered saline (PBS) and the positive control was an aqueous solution of sodium dodecyl sulphate (SDS, 5%, w/v).\nThe formulations were applied to the skin “without dilution”. An aliquot (10 μL) of the undiluted formulations and control substances were applied to three replicate EpiSkin® tissues using a positive displacement pipette. The formulations and controls were gently spread over the entire surface of the exposed skin using the applicator tip.\nThe EpiSkin® was exposed to the formulations and control substances for 15 min±30 s. The EpiSkin® surface was then rinsed with PBS (ca 25 mL) and returned to a well containing fresh Maintenance Medium (2 mL). […]\nAfter the recovery period, EpiSkin® units were tapped dry and transferred to wells containing a solution of MTT in EpiSkin Assay Medium (2 mL, 0.3 mg/mL). […] The cell viability of each tissue was calculated from optical density absorption readings with reference to the negative controls, which were assigned the nominal value of 100% viability.\nStandard statistical techniques were used to calculate ODblank mean: the average OD of the blank (acidified isopropanol containing) wells. The corrected OD for each sample or control was calculated by subtracting the value of ODblank mean from each reading: ODcorrected=ODraw−ODblank mean\nThe % Viability for each sample and positive control was calculated as follows: % Viability=(ODcorrected/mean ODnegative controls)×100 […]",
  "note": "Where “and” joins values, the source holds several entries; their conditions need not be identical. Equal entries are not always repeated.",
  "data": [
    {"molecule": "CCCCCCCCCCCCOS(=O)(=O)[O-].[Na+]", "note": "[Aqueous SDS Solution (5%, w/v), sodium dodecyl sulphate]", "values": [
      {"measurement": "Mean Relative Viability per Treatment (%)", "setting": "mean of three tissues, irritant (GHS category 2) if viability is 50% or less", "result": 23.36, "unit": "%"},
      {"measurement": "Mean Relative Viability per Tissue (%)", "setting": "per replicate tissue (Rep 1-3), 15 min exposure, 42 h recovery, sulphate", "result": "19.00% and 36.63% and 14.46%"},
      {"measurement": "Relative Viability (%)", "setting": "single readings, two per replicate tissue (Rep 1-3), 10 μL undiluted, 15 min exposure, 42 h recovery, negative control = 100%, sulphate", "result": "19.05% and 18.95% and 36.18% and 37.08% and 13.81% and 15.12%"}
    ]}
  ]
}
